# Source: patent publication US12545892B2, “Application of TGF-B inhibitor in inducing neural stem cells and organoid formation” (IREGENE THERAPEUTICS, CO., LTD., priority 2020, dated 2026)
# Tests used:
# [1] = system: human induced pluripotent stem cells; test: Brain organoid culture from induced pluripotent stem cells (formation, diameter); format: cell-based; settings: 12.5 μM in basal medium to day 10, culture to day 120
# Procedure: Organoid culture was performed with human induced pluripotent stem cells. Organoid inducing medium was formulated as follows: NouvNeu basal medium supplemented with 12.5 μM LY2157299. Induced pluripotent stem cells were digested to single cells by Accutase, seeded in U-bottom-ultra-low attachment 96-well plates at a ratio of 9000 cells/[…] of brain organoid inducing medium per well. 10 μM ROCK inhibitor Y-27632 (Selleck, S1049) was added, and the cells were placed in a 37° C., 5% carbon dioxide cell incubator for 24 hours (Panasonic, model: MCO-18AC). Y-27632-free fresh organoid inducing medium was changed the following day until day 10. Day 10 the organoids were transferred to ultra-low-attachment 6-well plates and the medium was changed to NouvNeu001 basal medium supplemented with 2% B27 cell culture additive. The culture was conducted at 37° C. in a 5% CO2 cell culture incubator on a horizontal rotator at 80 rpm until day 120.
# The control experiment was carried out according to the published method (Clair B et. al, Nat Methods. 2019, November; 16 (11): 1169-1175). N2B27 was used as the basic medium for organ like culture. […]
# Organoids were photographed by Leica Dmi8. The brain organoids were photographed and their diameters were measured. […]
# [2] = system: MHC associated genes CD4, HLA-A, HLA-C, hla-f, and HLA-DPB1; test: Q-PCR detection of MHC genes of induced neural stem cells; format: cell-based; settings: compared with human pluripotent stem cells; FIG. 6
# From the text: The major histocompatibility complex (MHC) genes of neural stem cells induced by LY2157299 was detected by Q-PCR method, and pluripotent stem cells (iPS) were used as control.
# [3] = system: Human pluripotent stem cells; test: Chemical induction of neural stem cells from pluripotent stem cells (neural rosette formation, cell morphology); format: cell-based
# From the text: Human pluripotent stem cells include embryonic pluripotent stem cells, such as the H9 cell line and human induced pluripotent stem cells. Wherein, the human induced pluripotent stem cells used in the present invention are obtained from the reprogramming of CD34^+ cells, which refers to “reprogramming culture medium and reprogramming induced pluripotent stem cell culture method” (the method in the patent ZL201910050800.7).
# Human pluripotent stem cells are used to coat T25 cell culture flasks with Matrigel ([…] Technologies), and then placed in a 37° C. incubator for more than one hour after plating. Follow 1×10^6 Cells were seeded in T25 flasks for expansion and passage.
# For neural induction, use 50 μg/mL poly-lysine (SIGMA, Cat. No.: P6407) to coat a 6-well culture plate, and incubate at 37° C. for more than 3 hours after plating; then use 5 μg/mL Laminin (SIGMA ALDRICH, Cat. No.: 12020) for further coat, and then place in a 37° C. incubator to incubate for more than 3 hours. When pluripotent stem cells reached 70% coverage, they were digested with EDTA at 37° C. for 5 min, and DMEM was used to stop cell digestion. Cells are washed and centrifuged at 2×10^5 the proportions of each flask and are re-seeded in T25 plates. Neural induction is performed using the medium of the present invention in combination with the neural inducing compound, and the medium is changed every day until the neural stem cell rosette is formed. […] Therefore, the single-molecule inducing method provided by this method can induce pluripotent stem cells to form neural rosette structures more efficiently and uniformly.
# (§1) From the above results, it is known that the differentiation is not complete under the low concentration condition, and many different types of cells can be seen. However, neural stem cells obtained in high concentration condition are easily differentiated and cell stress appears.
# [4] = system: neural stem cells obtained by the LY inducing method; test: Directed differentiation of induced neural stem cells into neurons (immunofluorescence); format: cell-based, human
# Procedure: The neural stem cells obtained by the LY inducing method in Example 2 were subjected to directed differentiation in NouvNeu001 basal medium. For neuronal differentiation, use 50 μg/mL polylysine (SIGMA ALDRICH, Cat. No.: P6407) to coat a 6-well culture plate, and place the plate in a 37° C. incubator and incubate for more than 3 hours until cells are seeded.
# The neural stem cells obtained in example 2 were seeded at a density of 1×10^5 the ratio per flask was inoculated in T25 flasks, and 3 μM CHIR99021 (Selleck, Cat. No.: S2924), 10 μM SU5402 (Tocris, Cat. No.: 3300/1), 10 μM DAPT (Selleck, Cat. No.: S2215) were added to NouvNeu001 basal medium. Fresh medium was replaced every 3 days until day 21. The above cultures were incubated at 37° C. with 5% CO2.
# The neural stem cells obtained in example 2 were seeded at a density of 1×10^5 the ratio per flask was inoculated in T25 flasks, and 1 μM Purmorphamine (Sellek, Cat. No.: S3042) and 1 ng/mL TGF-β3 (Novoprotein, Cat. No.: CJ44) were added to NouvNeu001 basal medium to culture neural stem cells. Fresh medium was replaced every 3 days until day 30. The above cultures were incubated at 37° C. with 5% CO2.
# The neural stem cells obtained in example 2 were seeded at a density of 1×10^5 the ratio per flask was inoculated in T25 flasks, and 0.5 μM retinyl acetate (SIGMA ALDRICH, Cat. No.: R7782) was added to NouvNeu001 basal medium. Fresh medium was replaced every 3 days until day 24. The above cultures were incubated at 37° C. with 5% CO2.
# After induction and differentiation, the cells were harvested and identified by immunofluorescence staining: cells were fixed with 4% paraformaldehyde at room temperature for 40 minutes, washed twice with DPBS buffer; then permeabilized with 0.1% Triton X-100 for 5 minutes, and buffered with DPBS The cells were then washed twice with DPBS buffer containing 10% horse serum and 0.1% Triton X-100 at 4° C. overnight; the cells were washed with DPBS buffer and then washed with 2% horse serum and 0.1% Triton X-100. […]
# [5] = system: Sox2, Pax6, Nestin, CASP3; test: Q-PCR of marker genes during induction from pluripotent stem cells to neural stem cells; format: cell-based, human; settings: different concentrations
# Procedure: Transcriptional changes of different marker genes during induction from pluripotent stem cells to neural stem cells were detected by using Q-PCR. The induced pluripotent stem cells used in this example are neural stem cells derived by LY inducing method and LSB inducing method, respectively. Neural stem cells were prepared as described previously using Rneasy Mini or Micro Kit (QIAGEN) for total RNA extraction, in which […] RNA was used to synthesize cDNA with superscript III First-Strand Synthesis System (Invitrogen).
# All the above data were analyzed with the delta-Ct method. Each set of trials was tested using three sets of replicates, and variance statistics were performed.
# as §1
# [6] = system: Human pluripotent stem cells; test: Cyquant assay of cell viability during neural induction; format: cell-based; settings: samples on days 1, 5, 10, 15 and 20; control LSB method; FIG. 1c
# Procedure: (§2) The Cyquant assay was used to perform the quantitative detection of cell viability, thus investigating the effect of LY2157299 on the physiological state of the cells during long-term culture of the cells; Among them, the LSB method was used as the control group. 96-well light-tight cell culture plates were coated; after the coating was complete, cells were seeded separately at 5×10^4 cell number per well and three sets of parallel replicates were set (the average of three sets was calculated as data) to repeat the procedure of example 2.1. Wherein, the culture procedures described previously were incubated at 37° C. with 5% CO2. Samples were taken on days 1, 5, 10, 15 and 20 for cell viability assay using CyQuant Kit (Invitrogen, cat. No: X12223). The aforementioned assay was operated according to the instructions with a Spectramax i3 Multi-Mode Microplate Reader (VWR, model number: ID3-STD) for data reading.
# [7] = system: HLA-DR; test: Flow cytometry detection of HLA-DR antigens of induced neural stem cells; format: cell-based, human; settings: FIG. 7
# Procedure: The HLA-DR antigens of neural stem cells induced by LY2157299 were detected by flow cytometry. HLA-DR is an MHC class II molecule whose expression is critical for the antigen-presenting function of cells and plays a key role in adoptive immune responses. The induced neural stem cells obtained in Example 2 were digested with EDTA, washed with DPBS, centrifuged to remove the supernatant, and 10^6 Cells were resuspended in 100 μL of diluted primary antibody (CD45 PerCP, Abeam, Cat. No. ab157309; HLA-DR FITC, CST, Cat. No. 54126), incubated on ice for 1 hour in the dark, centrifuged to remove supernatant, and cells were resuspended in 500 μL of antibody dilution buffer (CST) and analyzed on a flow cytometer. Samples incubated without primary antibody were used as controls. The results are shown in FIG. 7, FIG. 7a is a negative control, FIG. 7b is the HLA-DR detection result of the neural stem cells obtained by LY2157299 induction.
# [8] = Freezing point osmometer, osmolality of the culture system; format: physicochemical; settings: sodium chloride concentration 1 μg/mL; FIG. 2a
# From the text: A fully automated freezing point osmometer (FM-8P, Shanghai Yida Instruments Co., Ltd.) was used to detect the effects of different concentrations of sodium chloride on the osmolality of the culture system, and the specific operations were enrolled in the product instructions (FM-8P, Shanghai Yida Instruments Co., Ltd.). The test results are detailed in FIG. 2a. The results illustrate a linear increase with the concentration of sodium chloride and the osmotic pressure of the culture system. However, when the concentration reached 1 μg/mL, the osmolality of the culture system already exceeded the cell culture limit of 320 mOsm/kg.
# [9] = system: Human pluripotent stem cells; test: CyQuant assay of medium components (cell viability in long-term culture); format: cell-based; settings: different concentrations, FIG. 2b-2c
# Procedure: as §2
compound,measurement,setting,value
"Cc1cccc(-c2nn3c(c2-c2ccnc4ccc(C(N)=O)cc24)CCC3)n1 [LY2157299, 4-(2-(6-methylpyridin-2-yl)-5,6-dihydro-4h-pyrrolo[1,2-b]pyrazol-3-yl) quinoline-6-carboxamide]",generation of cerebral organoids,[1],can induce the generation of cerebral organoids
same,expression of MHC associated genes in induced neural stem cells (Q-PCR),[2],expressed at extremely low levels
same,cell population obtained by chemical induction,"[3]; 12.5 μM in NouvNeu001 basal medium, FIG. 4d",resulted in a uniform cell population
same,cell population obtained by chemical induction,"[3]; 25 μM in NouvNeu001 basal medium, FIG. 4e",a mixed population of neural cells was obtained
same,cell stress during chemical induction,"[3]; 25 μM, FIG. 4e",cells showed signs of stress with intracellular vacuoles
same,cell population obtained by chemical induction,"[3]; in NouvNeu001 basal medium, FIG. 4c",a mixed population of cells including neural cells was obtained
same,"nociceptor neuron differentiation of induced neural stem cells, marker expression","[4]; CHIR99021, SU5402, DAPT until day 21, FIG. 5a-5c",express the nociceptor neuron specific marker SCNI11A
same,"dopaminergic neuron differentiation of induced neural stem cells, marker expression","[4]; Purmorphamine, TGF-β3 until day 30, FIG. 5d-5f",can express mature dopaminergic neuron specific marker Pitx3
same,"photoreceptor neuron differentiation of induced neural stem cells, marker expression","[4]; retinyl acetate until day 24, FIG. 5g-5i",can express the photoreceptor neuron specific marker OPSIN
same,regulation of Pax6 expression by concentration (Q-PCR),[5]; FIG. 4f,positively correlated with Pax6 expression
same,regulation of apoptosis gene CASP3 by concentration (Q-PCR),[5]; FIG. 4g,positively correlated with apoptosis
same,"number of neural cells (cell viability, CyQuant)",[6],induced more number of neural cells compared with LSB method
same,HLA-DR antigen expression of induced neural stem cells (flow cytometry),[7],do not express HLA-DR
[Cl-].[Na+] [sodium chloride],osmolality of the culture system,[8],> 320 mOsm/kg
"recombinant insulin: component of the basal medium, screened at different concentrations",effect of concentration on cell proliferation (CyQuant),[9],positively correlated with the rate of cell proliferation
